In patent publication US10004701B2, “Methods and compositions for treating infection” (UNIVERSITY OF ROCHESTER, priority 2012, dated 2018):
Counter-ions that a name gives are not always drawn. Like-named read-outs stand apart in the source and are kept apart here.

Key:
Assay in all cases: AK assay 384-well format, Prestwick library screening
E. faecium = format: cell-based, Enterococcus faecium; conditions: 50 μM final drug concentration; for fold induction at 50 µM: Enterococcus faecium, 3 h
[1] = system: S. aureus strain USA300-0114; format: cell-based, Staphylococcus aureus; conditions: 50 μM final drug concentration; for fold induction at 50 µM: Staphylococcus aureus, USA300, 3 h
K. pneumoniae = format: cell-based, Klebsiella pneumoniae; conditions: 50 μM final drug concentration; for fold induction at 50 µM: Klebsiella pneumoniae, 3 h
[2] = system: A. baumannii strain 98-37-09; format: cell-based, Acinetobacter baumannii; conditions: 50 μM final drug concentration; for fold induction at 50 µM: Acinetobacter baumannii, 983709, 3 h
P. aeruginosa = format: cell-based, Pseudomonas aeruginosa; conditions: 50 μM final drug concentration; for fold induction at 50 µM: Pseudomonas aeruginosa, 3 h
E. cloacae = format: cell-based, Enterobacter cloacae; conditions: 50 μM final drug concentration; for fold induction at 50 µM: Enterobacter cloacae, 3 h
E. coli = format: cell-based, Escherichia coli; conditions: 50 μM final drug concentration; for fold induction at 50 µM: Escherichia coli, 3 h
[3] = 384-well format, cutoff for positive-scoring molecules 3-fold increase, read-out: AK-based Prestwick Library Screening Results, E. faecium (increase in extracellular AK activity)
[4] = 384-well format, cutoff for positive-scoring molecules 3-fold increase, read-out: AK-based Prestwick Library Screening Results, S. aureus (increase in extracellular AK activity)
[5] = 384-well format, cutoff for positive-scoring molecules 3-fold increase, read-out: AK-based Prestwick Library Screening Results, K. pneumoniae (increase in extracellular AK activity)
[6] = 384-well format, cutoff for positive-scoring molecules 3-fold increase, read-out: AK-based Prestwick Library Screening Results, A. baumannii (increase in extracellular AK activity)
[7] = 384-well format, cutoff for positive-scoring molecules 3-fold increase, read-out: AK-based Prestwick Library Screening Results, P. aeruginosa (increase in extracellular AK activity)
[8] = 384-well format, cutoff for positive-scoring molecules 3-fold increase, read-out: AK-based Prestwick Library Screening Results, E. cloacae (increase in extracellular AK activity)
[9] = 384-well format, cutoff for positive-scoring molecules 3-fold increase, read-out: AK-based Prestwick Library Screening Results, E. coli (increase in extracellular AK activity)
[10] = planktonic, cutoff for positive-scoring molecules 3-fold increase, read-out: AK-based Prestwick Library Screening Results, E. faecium (fold increase in extracellular AK activity)
[11] = planktonic, cutoff for positive-scoring molecules 3-fold increase, read-out: AK-based Prestwick Library Screening Results, S. aureus (fold increase in extracellular AK activity)
[12] = planktonic, cutoff for positive-scoring molecules 3-fold increase, read-out: AK-based Prestwick Library Screening Results, K. pneumoniae (fold increase in extracellular AK activity)
[13] = planktonic, cutoff for positive-scoring molecules 3-fold increase, read-out: AK-based Prestwick Library Screening Results, A. baumannii (fold increase in extracellular AK activity)
[14] = planktonic, cutoff for positive-scoring molecules 3-fold increase, read-out: AK-based Prestwick Library Screening Results, P. aeruginosa (fold increase in extracellular AK activity)
[15] = planktonic, cutoff for positive-scoring molecules 3-fold increase, read-out: AK-based Prestwick Library Screening Results, E. cloacae (fold increase in extracellular AK activity)
[16] = planktonic, cutoff for positive-scoring molecules 3-fold increase, read-out: AK-based Prestwick Library Screening Results, E. coli (fold increase in extracellular AK activity)

CCN1C[C@]2(COC)CC[C@H](O)[C@@]34C5C[C@@H]6[C@@H](OC)C[C@](O)(C(CC23)C14)C5[C@H]6OC(C)=O (some centres unmarked) [Condelphine]
fold induction at 50 µM (E. faecium; planktonic E. faecium, […], read-out: AK-based Prestwick library screening result, E. faecium (fold increase in extracellular AK activity)): 1.1 | fold induction at 50 µM ([1]; planktonic S. aureus, […], read-out: AK-based Prestwick library screening result, S. aureus (fold increase in extracellular AK activity)): 1.1 | fold induction at 50 µM (K. pneumoniae; planktonic K. pneumoniae, […], read-out: AK-based Prestwick library screening result, K. pneumoniae (fold increase in extracellular AK activity)): 1 | fold induction at 50 µM ([2]; planktonic A. baumannii, […], read-out: AK-based Prestwick library screening result, A. baumannii (fold increase in extracellular AK activity)): 1.1 | fold induction at 50 µM (P. aeruginosa; planktonic P. aeruginosa, […], read-out: AK-based Prestwick library screening result, P. aeruginosa (fold increase in extracellular AK activity)): 1 | fold induction at 50 µM (E. cloacae; planktonic E. cloacae, […], read-out: AK-based Prestwick library screening result, E. cloacae (fold increase in extracellular AK activity)): 1.2 | fold induction at 50 µM (E. coli; planktonic E. coli, […], read-out: AK-based Prestwick library screening result, E. coli (fold increase in extracellular AK activity)): 1.1

Nc1ccc(S(=O)(=O)Nc2nccs2)cc1 [Sulfathiazole]
fold induction at 50 µM (E. faecium; [3]): 0.9 | fold induction at 50 µM [1, 4]: 0.6 | fold induction at 50 µM (K. pneumoniae; [5]): 0.6 | fold induction at 50 µM [2, 6]: 1 | fold induction at 50 µM (P. aeruginosa; [7]): 0.6 | fold induction at 50 µM (E. cloacae; [8]): 0.7 | fold induction at 50 µM (E. coli; [9]): 0.7

COC1=CC(=O)O[C@@H](/C=C/c2ccccc2)C1 [Kawain]
fold induction at 50 µM (E. faecium; planktonic E. faecium, 384-well, […], read-out: AK-based Prestwick Library Screening Results: E. faecium (increase in extracellular AK activity)): 1.1 | fold induction at 50 µM ([1]; planktonic S. aureus, 384-well, […], read-out: AK-based Prestwick Library Screening Results: S. aureus (increase in extracellular AK activity)): 1 | fold induction at 50 µM (K. pneumoniae; planktonic K. pneumoniae, 384-well, […], read-out: AK-based Prestwick Library Screening Results: K. pneumoniae (increase in extracellular AK activity)): 1 | fold induction at 50 µM ([2]; planktonic A. baumannii, 384-well, […], read-out: AK-based Prestwick Library Screening Results: A. baumannii (increase in extracellular AK activity)): 1.2 | fold induction at 50 µM (P. aeruginosa; planktonic P. aeruginosa, 384-well, […], read-out: AK-based Prestwick Library Screening Results: P. aeruginosa (increase in extracellular AK activity)): 1 | fold induction at 50 µM (E. cloacae; planktonic E. cloacae, 384-well, […], read-out: AK-based Prestwick Library Screening Results: E. cloacae (increase in extracellular AK activity)): 1.4 | fold induction at 50 µM (E. coli; planktonic E. coli, 384-well, […], read-out: AK-based Prestwick Library Screening Results: E. coli (increase in extracellular AK activity)): 1.1

O=[N+]([O-])c1cc([As](=O)(O)O)ccc1O [Roxarsone]
AK-based Prestwick Library Screening Results, E. faecium (fold increase in extracellular AK activity) (E. faecium; […]): 0.8 | AK-based Prestwick Library Screening Results, S. aureus (fold increase in extracellular AK activity) ([1]; […]): 0.6 | AK-based Prestwick Library Screening Results, K. pneumoniae (fold increase in extracellular AK activity) (K. pneumoniae; […]): 0.4 | AK-based Prestwick Library Screening Results, A. baumannii (fold increase in extracellular AK activity) ([2]; […]): 0.5 | AK-based Prestwick Library Screening Results, P. aeruginosa (fold increase in extracellular AK activity) (P. aeruginosa; […]): 0.5 | AK-based Prestwick Library Screening Results, E. cloacae (fold increase in extracellular AK activity) (E. cloacae; […]): 0.5 | AK-based Prestwick Library Screening Results, E. coli (fold increase in extracellular AK activity) (E. coli; […]): 0.4

C#C[C@]1(O)CC[C@H]2[C@@H]3CCC4=CCCC[C@@H]4[C@H]3CC[C@@]21C [Lynestrenol]
fold induction at 50 µM (E. faecium; [3]): 0.9 | fold induction at 50 µM [1, 4]: 0.5 | fold induction at 50 µM (K. pneumoniae; [5]): 0.6 | fold induction at 50 µM [2, 6]: 1.4 | fold induction at 50 µM (P. aeruginosa; [7]): 0.6 | fold induction at 50 µM (E. cloacae; [8]): 0.7 | fold induction at 50 µM (E. coli; [9]): 0.7

COCCOC(=O)C1=C(C)NC(C)=C(C(=O)OC(C)C)C1c1cccc([N+](=O)[O-])c1 (centres unmarked) [Nimodipine]
fold induction at 50 µM (E. faecium; [10]): 1 | fold induction at 50 µM [1, 11]: 0.7 | fold induction at 50 µM (K. pneumoniae; [12]): 0.7 | fold induction at 50 µM [2, 13]: 1 | fold induction at 50 µM (P. aeruginosa; [14]): 0.9 | fold induction at 50 µM (E. cloacae; [15]): 1.4 | fold induction at 50 µM (E. coli; [16]): 0.9

NCC[C@H](O)C(=O)N[C@@H]1C[C@H](N)[C@@H](O[C@H]2O[C@H](CN)[C@@H](O)[C@H](O)[C@H]2O)[C@H](O)[C@H]1O[C@H]1O[C@H](CO)[C@@H](O)[C@H](N)[C@H]1O [Amikacin hydrate]
fold induction at 50 µM (E. faecium; planktonic, cutoff for positive 3-fold increase, read-out: AK-based Prestwick Library Screening Results, E. faecium (fold increase in extracellular AK activity)): 1 | fold induction at 50 µM ([1]; planktonic, cutoff for positive 3-fold increase, read-out: AK-based Prestwick Library Screening Results, S. aureus (fold increase in extracellular AK activity)): 1.3 | fold induction at 50 µM (K. pneumoniae; planktonic, cutoff for positive 3-fold increase, read-out: AK-based Prestwick Library Screening Results, K. pneumoniae (fold increase in extracellular AK activity)): 6.2 | fold induction at 50 µM ([2]; planktonic, cutoff for positive 3-fold increase, read-out: AK-based Prestwick Library Screening Results, A. baumannii (fold increase in extracellular AK activity)): 7.6 | fold induction at 50 µM (P. aeruginosa; planktonic, cutoff for positive 3-fold increase, read-out: AK-based Prestwick Library Screening Results, P. aeruginosa (fold increase in extracellular AK activity)): 14.2 | fold induction at 50 µM (E. cloacae; planktonic, cutoff for positive 3-fold increase, read-out: AK-based Prestwick Library Screening Results, E. cloacae (fold increase in extracellular AK activity)): 4.9 | fold induction at 50 µM (E. coli; planktonic, cutoff for positive 3-fold increase, read-out: AK-based Prestwick Library Screening Results, E. coli (fold increase in extracellular AK activity)): 22.1

CCCNC(C)C(=O)Nc1ccccc1C (centres unmarked) [Prilocaine hydrochloride]
fold induction at 50 µM (E. faecium; [3]): 0.9 | fold induction at 50 µM [1, 4]: 0.8 | fold induction at 50 µM (K. pneumoniae; [5]): 0.7 | fold induction at 50 µM [2, 6]: 0.9 | fold induction at 50 µM (P. aeruginosa; [7]): 0.9 | fold induction at 50 µM (E. cloacae; [8]): 1.3 | fold induction at 50 µM (E. coli; [9]): 0.9

C[C@@H]1CN([C@H]2CC[C@](C#N)(c3ccc(F)cc3)CC2)CC[C@]1(C(=O)O)c1ccccc1 [Levocabastine hydrochloride]
fold induction at 50 µM (E. faecium; planktonic E. faecium, positive cutoff 3-fold increase, read-out: AK-based Prestwick library screening result, E. faecium (fold increase in extracellular AK activity)): 1 | fold induction at 50 µM ([1]; planktonic S. aureus, positive cutoff 3-fold increase, read-out: AK-based Prestwick library screening result, S. aureus (fold increase in extracellular AK activity)): 1.1 | fold induction at 50 µM (K. pneumoniae; planktonic K. pneumoniae, positive cutoff 3-fold increase, read-out: AK-based Prestwick library screening result, K. pneumoniae (fold increase in extracellular AK activity)): 1.1 | fold induction at 50 µM ([2]; planktonic A. baumannii, positive cutoff 3-fold increase, read-out: AK-based Prestwick library screening result, A. baumannii (fold increase in extracellular AK activity)): 1.2 | fold induction at 50 µM (P. aeruginosa; planktonic P. aeruginosa, positive cutoff 3-fold increase, read-out: AK-based Prestwick library screening result, P. aeruginosa (fold increase in extracellular AK activity)): 1 | fold induction at 50 µM (E. cloacae; planktonic E. cloacae, positive cutoff 3-fold increase, read-out: AK-based Prestwick library screening result, E. cloacae (fold increase in extracellular AK activity)): 1.6 | fold induction at 50 µM (E. coli; planktonic E. coli, positive cutoff 3-fold increase, read-out: AK-based Prestwick library screening result, E. coli (fold increase in extracellular AK activity)): 1.1

CCOc1ccc2c(c1)C(C)=CC(C)(C)N2 [Ethoxyquin]
fold induction at 50 µM (E. faecium; [10]): 0.9 | fold induction at 50 µM [1, 11]: 1.1 | fold induction at 50 µM (K. pneumoniae; [12]): 0.9 | fold induction at 50 µM [2, 13]: 0.9 | fold induction at 50 µM (P. aeruginosa; [14]): 1.1 | fold induction at 50 µM (E. cloacae; [15]): 1.4 | fold induction at 50 µM (E. coli; [16]): 1.1

O=C(O)Cc1ccc(-c2ccccc2)cc1 [Felbinac]
fold induction at 50 µM (E. faecium; [10]): 0.9 | fold induction at 50 µM [1, 11]: 0.6 | fold induction at 50 µM (K. pneumoniae; [12]): 0.6 | fold induction at 50 µM [2, 13]: 0.8 | fold induction at 50 µM (P. aeruginosa; [14]): 0.7 | fold induction at 50 µM (E. cloacae; [15]): 1 | fold induction at 50 µM (E. coli; [16]): 0.7
